The source of these data is US20230340011A1 (Asteroid Therapeutics, priority 2022, published 2023).

The target of assay [1] is LXRβ (Homo sapiens (Human), UniProt P55055). Kind of assay: In vitro assay LXRβ: PathHunter NHR CHO cells, LXRβ / Steroid Receptor Co-activator Peptide enzyme fragment complementation. The class given is cell-based. The note with it: PathHunter NHR CHO cells, full-length human LXRβ and SRCP, chemiluminescent signal; read-out: LXRβ PPI. The essentials: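 Co-activator recruitment measured by chemiluminescence after signal generation. The CHO line carries full-length human LXRβ tagged with ProLink and an SRCP–enzyme acceptor fusion in the nucleus; cells sat overnight at 37° C before testing, in charcoal-dextran filtered serum medium with 1% final vehicle.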
Chain of LXRβ (P55055 whole entry, the tested form may be a part): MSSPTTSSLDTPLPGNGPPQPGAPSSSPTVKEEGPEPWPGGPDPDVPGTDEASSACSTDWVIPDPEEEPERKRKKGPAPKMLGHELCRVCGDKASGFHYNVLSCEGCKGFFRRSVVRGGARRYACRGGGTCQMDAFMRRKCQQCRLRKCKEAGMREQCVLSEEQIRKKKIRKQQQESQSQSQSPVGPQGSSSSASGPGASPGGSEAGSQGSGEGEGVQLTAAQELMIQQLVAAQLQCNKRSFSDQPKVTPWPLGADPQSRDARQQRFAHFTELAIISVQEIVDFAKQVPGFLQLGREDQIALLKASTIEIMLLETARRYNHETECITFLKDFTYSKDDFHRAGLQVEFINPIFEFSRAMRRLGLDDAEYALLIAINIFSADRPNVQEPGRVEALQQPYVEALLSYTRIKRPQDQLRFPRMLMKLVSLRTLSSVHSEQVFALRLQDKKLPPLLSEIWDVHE

Assay [2] concerns the target SREBP-2 (Homo sapiens (Human), UniProt Q12772). Kind of assay: In vitro assay SREBP-2: PathHunter U2OS SREBP-2 Nuclear Translocation Cell Line, U18666A-stimulated. The note with it: PathHunter U2OS SREBP-2 nuclear translocation cells, U18666A 10 μM, overnight (16 hours). Format: cell-based.

Usually IC50 stands for the point on the concentration scale where inhibition reaches its midpoint.

On to `Cc1nnc(N2CCN(C(=O)CC[C@@H](C)[C@H]3CC[C@H]4[C@@H]5CC=C6C[C@@H](O)CC[C@]6(C)[C@H]5CC[C@]34C)C[C@@H]2C)o1` [Example 634, (4R)-4-[(1R,3aS,3bS,7S,9aR,9bS,11aR)-7-hydroxy-9a,11a-dimethyl-1H,2H,3H,3aH,3bH,4H,6H,7H,8H,9H,9aH,9bH,10H,11H,11aH-cyclopenta[a]phenanthren-1-yl]-1-[(3S)-3-methyl-4-(5-methyl-1,3,4-oxadiazol-2-yl)piperazin-1-yl]pentan-1-one], for which the EC50 in assay [1] is greater than 10000 nM. The compound further showed an IC50 in assay [2] of less than 250 nM.
Taken in the same sequence, the figures for `Cc1nnc(N2CCN(C(=O)CC[C@@H](C)[C@H]3CC[C@H]4[C@@H]5CC=C6C[C@@H](O)CC[C@]6(C)[C@H]5CC[C@]34C)[C@@H](C)C2)o1` [Example 635, (R)-4-((3S,8S,9S,10R,13R,14S,17R)-3-hydroxy-10,13-dimethyl-2,3,4,7,8,9,10,11,12,13,14,15,16,17-tetradecahydro-1H-cyclopenta[a]phenanthren-17-yl)-1-((S)-2-methyl-4-(5-methyl-1,3,4-oxadiazol-2-yl)piperazin-1-yl)pentan-1-one] were greater than 10000 nM and less than 250 nM.
As for `C[C@H](CCC(=O)N1CCN(C(=O)N(C)CC2CC2)[C@@H](C)C1)[C@H]1CC[C@H]2[C@@H]3CC=C4C[C@@H](O)CC[C@]4(C)[C@H]3CC[C@]12C` [Example 636, (S)—N-(cyclopropylmethyl)-4-((R)-4-((3S,8S,9S,10R,13R,14S,17R)-3-hydroxy-10,13-dimethyl-2,3,4,7,8,9,10,11,12,13,14,15,16,17-tetradecahydro-1H-cyclopenta[a]phenanthren-17-yl)pentanoyl)-N,2-dimethylpiperazine-1-carboxamide], in assay [1], the EC50 was greater than 10000 nM. In assay [2], this compound yielded an IC50 of less than 250 nM.
Taken in the same sequence, the figures for `C[C@H](CCC(=O)N1CCN(C(=O)N(C)CC2CC2)C[C@@H]1C)[C@H]1CC[C@H]2[C@@H]3CC=C4C[C@@H](O)CC[C@]4(C)[C@H]3CC[C@]12C` [Example 637, (S)—N-(cyclopropylmethyl)-4-((R)-4-((3S,8S,9S,10R,13R,14S,17R)-3-hydroxy-10,13-dimethyl-2,3,4,7,8,9,10,11,12,13,14,15,16,17-tetradecahydro-1H-cyclopenta[a]phenanthren-17-yl)pentanoyl)-N,3-dimethylpiperazine-1-carboxamide] were greater than 10000 nM and less than 250 nM.
For `[C-]#[N+]c1cccnc1CC[C@@H](C)[C@H]1CC[C@H]2[C@@H]3CC=C4C[C@@H](O)CC[C@]4(C)[C@H]3CC[C@]12C` [Example 638, (3S,8S,9S,10R,13R,14S,17R)-17-((R)-4-(3-isocyanopyridin-2-yl)butan-2-yl)-10,13-dim ethyl-2,3,4,7,8,9,10,11,12,13,14,15,16,17-tetradecahydro-1H-cyclopenta[a]phenanthren-3-ol] the same measures were 250 to 1000 nM and less than 250 nM.
Taken in the same sequence, the figures for `C[C@H](CCC(=O)N(C)c1ccncc1)[C@H]1CC[C@H]2[C@@H]3CC=C4C[C@@H](O)CC[C@]4(C)[C@H]3CC[C@]12C` [Example 639, (R)-4-((3S,8S,9S,10R,13R,14S,17R)-3-hydroxy-10,13-dimethyl-2,3,4,7,8,9,10,11,12,13,14,15,16,17-tetradecahydro-1H-cyclopenta[a]phenanthren-17-yl)-N-methyl-N-(pyridin-4-yl)pentanamide] were greater than 10000 nM and 250 to 1000 nM.
On to `C[C@H](CCC(=O)N1CCN(c2cccnc2O)CC1)[C@H]1CC[C@H]2[C@@H]3CC=C4C[C@@H](O)CC[C@]4(C)[C@H]3CC[C@]12C` [Example 640, (R)-4-((3S,8S,9S,10R,13R,14S,17R)-3-hydroxy-10,13-dimethyl-2,3,4,7,8,9,10,11,12,13,14,15,16,17-tetradecahydro-1H-cyclopenta[a]phenanthren-17-yl)-1-(4-(2-hydroxypyridin-3-yl)piperazin-1-yl) pentan-1-one], for which the EC50 in assay [1] was greater than 10000 nM. The compound further returned a half-inhibitory concentration (IC50) in assay [2] of less than 250 nM.
Taken in the same sequence, the figures for `C[C@@H](CCC(=O)N[C@H]1CC[C@@H](C(=O)N(C)C)CC1)[C@H]1CC[C@H]2[C@@H]3CC=C4C[C@@H](O)CC[C@]4(C)[C@H]3CC[C@]12C` [Example 641, (1S,4s)-4-((R)-4-((3S,8S,9S,10R,13R,14S,17R)-3-hydroxy-10,13-dimethyl-2,3,4,7,8,9,10,11,12,13,14,15,16,17-tetradecahydro-1H-cyclopenta[a]phenanthren-17-yl)pentanamido)-N,N-dimethylcyclohexane-1-carboxamide] were greater than 10000 nM and less than 250 nM.
For `C[C@H](CCC(=O)N(C)C1CCN(C(=O)C2CC2)CC1)[C@H]1CC[C@H]2[C@@H]3CC=C4C[C@@H](O)CC[C@]4(C)[C@H]3CC[C@]12C` [Example 642, (R)—N-(1-(cyclopropanecarbonyl)piperidin-4-yl)-4-((3S,8S,9S,10R,13R,14S,17R)-3-hydroxy-10,13-dimethyl-2,3,4,7,8,9,10,11,12,13,14,15,16,17-tetradecahydro-1H-cyclopenta[a]phenanthren-17-yl)-N-methylpentanamide] the same measures were greater than 10000 nM and less than 250 nM.
For `COC(=O)N1CCC(N(C)C(=O)CC[C@@H](C)[C@H]2CC[C@H]3[C@@H]4CC=C5C[C@@H](O)CC[C@]5(C)[C@H]4CC[C@]23C)CC1` [Example 643, Methyl 4-[(4R)-4-[(1R,3aS,3bS,7S,9aR,9bS,11aR)-7-hydroxy-9a,11a-dimethyl-1H,2H,3H,3aH,3bH,4H,6H,7H,8H,9H,9aH,9bH,10H,11H,11aH-cyclopenta[a]phenanthren-1-yl]-N-methylpentanamido]piperidine-1-carboxylate] the same measures were greater than 10000 nM and less than 250 nM.
On to `C[C@H](CCC(=O)N(C)C1CCN(C(=O)N(C)C)CC1)[C@H]1CC[C@H]2[C@@H]3CC=C4C[C@@H](O)CC[C@]4(C)[C@H]3CC[C@]12C` [Example 644, 4-((R)-4-((3S,8S,9S,10R,13R,14S,17R)-3-hydroxy-10,13-dimethyl-2,3,4,7,8,9,10,11,12,13,14,15,16,17-tetradecahydro-1H-cyclopenta[a]phenanthren-17-yl)-N-methylpentanamido)-N,N-dimethylpiperidine-1-carboxamide], for which the EC50 in assay [1] is greater than 10000 nM. The compound further showed a 50% inhibitory concentration (IC50) in assay [2] of less than 250 nM.
For `C[C@H](CCC(=O)N(C)C1CCN(C(=O)N2CCCC2)CC1)[C@H]1CC[C@H]2[C@@H]3CC=C4C[C@@H](O)CC[C@]4(C)[C@H]3CC[C@]12C` [Example 645, (4R)-4-[(1R,3aS,3bS,7S,9aR,9bS,11aR)-7-hydroxy-9a,11a-dimethyl-1H,2H,3H,3aH,3bH,4H,6H,7H,8H,9H,9aH,9bH,10H,11H,11aH-cyclopenta[a]phenanthren-1-yl]-N-methyl-N-[1-(pyrrolidine-1-carbonyl)piperidin-4-yl]pentanamide], in assay [1], the EC50 is greater than 10000 nM. The same compound returned an IC50 in assay [2] of less than 250 nM.
Taken in the same sequence, the figures for `COc1cc(N2CCN(C(=O)CC[C@@H](C)[C@H]3CC[C@H]4[C@@H]5CC=C6C[C@@H](O)CC[C@]6(C)[C@H]5CC[C@]34C)C[C@@H]2C)ncn1` [Example 646, (R)-4-((3S,8S,9S,10R,13R,14S,17R)-3-hydroxy-10,13-dimethyl-2,3,4,7,8,9,10,11,12,13,14,15,16,17-tetradecahydro-1H-cyclopenta[a]phenanthren-17-yl)-1-((S)-4-(6-methoxypyrimidin-4-yl)-3-methylpiperazin-1-yl)pentan-1-one] were greater than 10000 nM and less than 250 nM.
For `Cc1nccc(N2CCN(C(=O)CC[C@@H](C)[C@H]3CC[C@H]4[C@@H]5CC=C6C[C@@H](O)CC[C@]6(C)[C@H]5CC[C@]34C)C[C@@H]2C)n1` [Example 647, (4R)-4-[(1R,3aS,3bS,7S,9aR,9bS,11aR)-7-hydroxy-9a,11a-dimethyl-1H,2H,3H,3aH,3bH,4H,6H,7H,8H,9H,9aH,9bH,10H,11H,11aH-cyclopenta[a]phenanthren-1-yl]-1-[(3S)-3-methyl-4-(2-methylpyrimidin-4-yl)piperazin-1-yl]pentan-1-one] the same measures were greater than 10000 nM and less than 250 nM.
On to `COc1cc(N2CCN(C(=O)CC[C@@H](C)[C@H]3CC[C@H]4[C@@H]5CC=C6C[C@@H](O)CC[C@]6(C)[C@H]5CC[C@]34C)[C@@H](C)C2)ncn1` [Example 648, (R)-4-((3S,8S,9S,10R,13R,14S,17R)-3-hydroxy-10,13-dimethyl-2,3,4,7,8,9,10,11,12,13,14,15,16,17-tetradecahydro-1H-cyclopenta[a]phenanthren-17-yl)-1-((S)-4-(6-methoxypyrimidin-4-yl)-2-methylpiperazin-1-yl)pentan-1-one], for which, in assay [1], the EC50 was greater than 10000 nM. Further, in assay [2], the IC50 was less than 250 nM.
Taken in the same sequence, the figures for `Cc1nccc(N2CCN(C(=O)CC[C@@H](C)[C@H]3CC[C@H]4[C@@H]5CC=C6C[C@@H](O)CC[C@]6(C)[C@H]5CC[C@]34C)[C@@H](C)C2)n1` [Example 649, (R)-4-((3S,8S,9S,10R,13R,14S,17R)-3-hydroxy-10,13-dimethyl-2,3,4,7,8,9,10,11,12,13,14,15,16,17-tetradecahydro-1H-cyclopenta[a]phenanthren-17-yl)-1-((S)-2-methyl-4-(2-methylpyrimidin-4-yl)piperazin-1-yl)pentan-1-one] were greater than 10000 nM and less than 250 nM.
Regarding `C[C@H](CCC(=O)N1CCN(C(=O)C2CC2)[C@@H](C)C1)[C@H]1CC[C@H]2[C@@H]3CC=C4C[C@@H](O)CC[C@]4(C)[C@H]3CC[C@]12C` [Example 650, (R)-1-((S)-4-(cyclopropanecarbonyl)-3-methylpiperazin-1-yl)-4-((3S,8S,9S,10R,13R,14S,17R)-3-hydroxy-10,13-dimethyl-2,3,4,7,8,9,10,11,12,13,14,15,16,17-tetradecahydro-1H-cyclopenta[a]phenanthren-17-yl)pentan-1-one], the EC50 in assay [1] was greater than 10000 nM. In addition, in assay [2], the 50% inhibitory concentration (IC50) is less than 250 nM.
